Bridge positions count the residues as written; N and C are the ends. Square brackets hold non-standard residues; d marks the D form. Peptide text beside a SMILES is read from it. * marks the point of attachment. Bip = N[C@@H](Cc1ccc(-c2ccccc2)cc1)C(=O)O; Phe(3-Me) = Cc1cccc(C[C@H](N)C(=O)O)c1; Cha = N[C@@H](CC1CCCCC1)C(=O)O; Cit = NC(=O)NCCC[C@H](N)C(=O)O; Carboxymethyl = O=C(O)C*; Orn = NCCC[C@H](N)C(=O)O; Aun = NCCCCCCCCCCC(=O)O; Dab = NCC[C@H](N)C(=O)O; Dap = NC[C@H](N)C(=O)O
Target: T1, PD-1/PD-L1 interaction (PE-labeled human PD-L1-Ig binding to Jurkat cell line over-expressing human PD-1) (Homo sapiens, UniProt Q15116)
T1 construct: expressed in transfected cells; host or cells: Jurkat
T1 sequence (Q15116 25-288): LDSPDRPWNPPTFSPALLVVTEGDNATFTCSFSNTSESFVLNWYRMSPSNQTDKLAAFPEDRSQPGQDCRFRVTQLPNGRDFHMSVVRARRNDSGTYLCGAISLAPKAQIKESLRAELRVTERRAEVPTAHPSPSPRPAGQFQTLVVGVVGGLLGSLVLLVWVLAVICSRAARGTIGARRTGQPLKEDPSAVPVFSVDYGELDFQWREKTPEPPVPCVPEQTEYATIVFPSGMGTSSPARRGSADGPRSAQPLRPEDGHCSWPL
Assay: Jurkat-PD-1 Cell Binding High-Content Screening Assay (CBA)
Assay type: cell-based
Settings: Jurkat cell line over-expressing human PD-1; PE-labeled PD-L1-Ig 20 nM final; read-out: Jurkat hPD1-PDL1 IC50
How it was run: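 Binding of fluorescent PD-L1-Ig (20 nM final) to Jurkat-PD-1 cells was measured by automated imaging after 1 h, following a 2 h compound pre-treatment at 37° C.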

| Structure (SMILES) | IC50 |
| --- | --- |
| Cc1cccc(C[C@@H]2NC(=O)[C@H](CC(=O)O)NC(=O)[C@H](Cc3ccc(OCC(=O)O)cc3)NC(=O)[C@H](CN)NC(=O)CSC[C@@H](C(=O)N[C@@H](C)C(=O)N[C@@H](CC(=O)O)C(=O)NCC(=O)NCCCCCCCCCCC(=O)O)NC(=O)[C@H]([C@@H](C)O)NC(=O)[C@H](C(C)C)NC(=O)[C@H](CC3CCCCC3)NC(=O)[C@H](CCN)NC(=O)[C@@H](CC(C)C)NC(=O)[C@H](CCCN)NC(=O)[C@H](CCC(=O)O)NC(=O)[C@H](Cc3ccc(-c4ccccc4)cc3)NC(=O)[C@H](C(C)C)NC2=O)c1 [Compound 1047] ({CH2CO}-[Dap]Y(Carboxymethyl)D[Phe(3-Me)]V[Bip]E[Orn][dL][Dab][Cha]VTCADG[Aun]-OH; thioether N-14) | 13.2 nM |
| Cc1cccc(C[C@@H]2NC(=O)[C@H](CC(=O)O)NC(=O)[C@H](Cc3ccc(OCC(=O)O)cc3)NC(=O)[C@H](CN)NC(=O)CSC[C@@H](C(=O)N[C@@H](C)C(=O)N[C@@H](CC(=O)O)C(=O)NCCCCCCCCCCC(=O)O)NC(=O)[C@H]([C@@H](C)O)NC(=O)[C@H](C(C)C)NC(=O)[C@H](CC3CCCCC3)NC(=O)[C@H](CCN)NC(=O)[C@@H](CC(C)C)NC(=O)[C@H](CCCN)NC(=O)[C@H](CCC(=O)O)NC(=O)[C@H](Cc3ccc(-c4ccccc4)cc3)NC(=O)[C@H](C(C)C)NC2=O)c1 [Compound 1049] ({CH2CO}-[Dap]Y(Carboxymethyl)D[Phe(3-Me)]V[Bip]E[Orn][dL][Dab][Cha]VTCAD[Aun]-OH; thioether N-14) | 15 nM |
| Cc1cccc(C[C@@H]2NC(=O)[C@H](CC(=O)O)NC(=O)[C@H](Cc3ccc(OCC(=O)O)cc3)NC(=O)[C@H](CN)NC(=O)CSC[C@@H](C(=O)N[C@@H](C)C(=O)N[C@@H](CN)C(=O)NCCCCCCCCCCC(=O)O)NC(=O)[C@H]([C@@H](C)O)NC(=O)[C@H](C(C)C)NC(=O)[C@H](CC3CCCCC3)NC(=O)[C@H](CCN)NC(=O)[C@@H](CC(C)C)NC(=O)[C@H](CCCN)NC(=O)[C@H](CCCNC(N)=O)NC(=O)[C@H](Cc3ccc(-c4ccccc4)cc3)NC(=O)[C@H](C(C)C)NC2=O)c1 [Compound 1057] ({CH2CO}-[Dap]Y(Carboxymethyl)D[Phe(3-Me)]V[Bip][Cit][Orn][dL][Dab][Cha]VTCA[Dap][Aun]-OH; thioether N-14) | 15.9 nM |
| Cc1cccc(C[C@@H]2NC(=O)[C@H](CC(=O)O)NC(=O)[C@H](Cc3ccc(OCC(=O)O)cc3)NC(=O)[C@H](Cc3ccc(OCC(=O)O)cc3)NC(=O)CSC[C@@H](C(=O)N[C@@H](CCCCN)C(=O)NCCCCCCCCCCC(=O)O)NC(=O)[C@H](CO)NC(=O)[C@H](C(C)C)NC(=O)[C@H](CC3CCCCC3)NC(=O)[C@H](CCN)NC(=O)[C@@H](CC(C)C)NC(=O)[C@H](CCCN)NC(=O)[C@H](C(C)C)NC(=O)[C@H](Cc3ccc(-c4ccccc4)cc3)NC(=O)[C@H](CC(C)C)NC2=O)c1 [Compound 1058] ({CH2CO}-Y(Carboxymethyl)Y(Carboxymethyl)D[Phe(3-Me)]L[Bip]V[Orn][dL][Dab][Cha]VSCK[Aun]-OH; thioether N-14) | 57.2 nM |

Further lines, results first:

| IC50 | Structure (SMILES) |
| --- | --- |
| 18.3 nM | Cc1cccc(C[C@@H]2NC(=O)[C@H](CC(=O)O)NC(=O)[C@H](Cc3ccc(OCC(=O)O)cc3)NC(=O)[C@H](CN)NC(=O)CSC[C@@H](C(=O)N[C@@H](CC(=O)O)C(=O)NCCCCCCCCCCC(=O)O)NC(=O)[C@H]([C@@H](C)O)NC(=O)[C@H](C(C)C)NC(=O)[C@H](CC3CCCCC3)NC(=O)[C@H](CCN)NC(=O)[C@@H](CC(C)C)NC(=O)[C@H](CCCN)NC(=O)[C@H](CCC(=O)O)NC(=O)[C@H](Cc3ccc(-c4ccccc4)cc3)NC(=O)[C@H](C(C)C)NC2=O)c1 [Compound 1048] ({CH2CO}-[Dap]Y(Carboxymethyl)D[Phe(3-Me)]V[Bip]E[Orn][dL][Dab][Cha]VTCD[Aun]-OH; thioether N-14) |
| 20.9 nM | Cc1cccc(C[C@@H]2NC(=O)[C@H](CC(=O)O)NC(=O)[C@H](Cc3ccc(OCC(=O)O)cc3)NC(=O)[C@H](Cc3ccc(OCC(=O)O)cc3)NC(=O)CSC[C@@H](C(=O)NCC(=O)N[C@@H](CCN)C(=O)NCC(=O)NCCCCCCCCCCC(=O)O)NC(=O)[C@H](CO)NC(=O)[C@H](C(C)C)NC(=O)[C@H](CC3CCCCC3)NC(=O)[C@H](CCN)NC(=O)[C@@H](CC(C)C)NC(=O)[C@H](CCCN)NC(=O)[C@H](C(C)C)NC(=O)[C@H](Cc3ccc(-c4ccccc4)cc3)NC(=O)[C@H](CC(C)C)NC2=O)c1 [Compound 1050] ({CH2CO}-Y(Carboxymethyl)Y(Carboxymethyl)D[Phe(3-Me)]L[Bip]V[Orn][dL][Dab][Cha]VSCG[Dab]G[Aun]-OH; thioether N-14) |
| 12.3 nM | Cc1cccc(C[C@@H]2NC(=O)[C@H](CC(=O)O)NC(=O)[C@H](Cc3ccc(OCC(=O)O)cc3)NC(=O)[C@H](CN)NC(=O)CSC[C@@H](C(=O)N[C@@H](C)C(=O)N[C@@H](CCN)C(=O)NCC(=O)NCCCCCCCCCCC(=O)O)NC(=O)[C@H]([C@@H](C)O)NC(=O)[C@H](C(C)C)NC(=O)[C@H](CC3CCCCC3)NC(=O)[C@H](CCN)NC(=O)[C@@H](CC(C)C)NC(=O)[C@H](CCCN)NC(=O)[C@H](CCCNC(N)=O)NC(=O)[C@H](Cc3ccc(-c4ccccc4)cc3)NC(=O)[C@H](C(C)C)NC2=O)c1 [Compound 1051] ({CH2CO}-[Dap]Y(Carboxymethyl)D[Phe(3-Me)]V[Bip][Cit][Orn][dL][Dab][Cha]VTCA[Dab]G[Aun]-OH; thioether N-14) |
| 8.9 nM | Cc1cccc(C[C@@H]2NC(=O)[C@H](CC(=O)O)NC(=O)[C@H](Cc3ccc(OCC(=O)O)cc3)NC(=O)[C@H](CN)NC(=O)CSC[C@@H](C(=O)N[C@@H](C)C(=O)N[C@@H](CN)C(=O)NCC(=O)NCCCCCCCCCCC(=O)O)NC(=O)[C@H]([C@@H](C)O)NC(=O)[C@H](C(C)C)NC(=O)[C@H](CC3CCCCC3)NC(=O)[C@H](CCN)NC(=O)[C@@H](CC(C)C)NC(=O)[C@H](CCCN)NC(=O)[C@H](CCCNC(N)=O)NC(=O)[C@H](Cc3ccc(-c4ccccc4)cc3)NC(=O)[C@H](C(C)C)NC2=O)c1 [Compound 1053] ({CH2CO}-[Dap]Y(Carboxymethyl)D[Phe(3-Me)]V[Bip][Cit][Orn][dL][Dab][Cha]VTCA[Dap]G[Aun]-OH; thioether N-14) |
| 31.3 nM | Cc1cccc(C[C@@H]2NC(=O)[C@H](CC(=O)O)NC(=O)[C@H](Cc3ccc(OCC(=O)O)cc3)NC(=O)[C@H](Cc3ccc(OCC(=O)O)cc3)NC(=O)CSC[C@@H](C(=O)NCC(=O)N[C@@H](CCN)C(=O)NCCCCCCCCCCC(=O)O)NC(=O)[C@H](CO)NC(=O)[C@H](C(C)C)NC(=O)[C@H](CC3CCCCC3)NC(=O)[C@H](CCN)NC(=O)[C@@H](CC(C)C)NC(=O)[C@H](CCCN)NC(=O)[C@H](C(C)C)NC(=O)[C@H](Cc3ccc(-c4ccccc4)cc3)NC(=O)[C@H](CC(C)C)NC2=O)c1 [Compound 1054] ({CH2CO}-Y(Carboxymethyl)Y(Carboxymethyl)D[Phe(3-Me)]L[Bip]V[Orn][dL][Dab][Cha]VSCG[Dab][Aun]-OH; thioether N-14) |
| 48.6 nM | Cc1cccc(C[C@@H]2NC(=O)[C@H](CC(=O)O)NC(=O)[C@H](Cc3ccc(OCC(=O)O)cc3)NC(=O)[C@H](Cc3ccc(OCC(=O)O)cc3)NC(=O)CSC[C@@H](C(=O)N[C@@H](CCCN)C(=O)NCCCCCCCCCCC(=O)O)NC(=O)[C@H](CO)NC(=O)[C@H](C(C)C)NC(=O)[C@H](CC3CCCCC3)NC(=O)[C@H](CCN)NC(=O)[C@@H](CC(C)C)NC(=O)[C@H](CCCN)NC(=O)[C@H](C(C)C)NC(=O)[C@H](Cc3ccc(-c4ccccc4)cc3)NC(=O)[C@H](CC(C)C)NC2=O)c1 [Compound 1059] ({CH2CO}-Y(Carboxymethyl)Y(Carboxymethyl)D[Phe(3-Me)]L[Bip]V[Orn][dL][Dab][Cha]VSC[Orn][Aun]-OH; thioether N-14) |
